# ChEMBL document CHEMBL1201862, “PubChem BioAssay data set” (2004)
#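 Following 48 hours of exposure in 96-well plates, responses at five concentrations were used to interpolate endpoints linearly. At the GI50, growth is halved.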 Active and inactive are the calls of the source. Cut-off read from the data, not from the text of the source: active = GI50 up to about 1.1 µM and inactive = higher. Non-standard residues stand in square brackets, D forms with d. Residues, ends and D or L forms follow the SMILES beside them. Ava = NCCCCC(=O)O; Mpa = O=C(O)CCS
# What was measured:
# Experiment in all cases: NCI-60 cell line screen, 48 h
# [1] = test system: ACHN
# [2] = test system: CCRF-CEM
# [3] = test system: EKVX
# [4] = test system: HCT-116
# [5] = test system: HCT-15
# [6] = test system: HL-60
# [7] = test system: HT-29
# [8] = test system: IGROV-1
# [9] = test system: KM12
# [10] = test system: M14
# [11] = test system: Malme-3M
# [12] = test system: OVCAR-4
# [13] = test system: OVCAR-8
# [14] = test system: RPMI-8226
# [15] = test system: SF-268
# [16] = test system: SF-295
# [17] = test system: SF-539
# [18] = test system: SK-OV-3
# [19] = test system: SW-620
# [20] = test system: UO-31
SMILES,GI50 [1],GI50 [2],GI50 [3],GI50 [4],GI50 [5] [µM],GI50 [6],GI50 [7],GI50 [8],GI50 [9],GI50 [10],GI50 [11],GI50 [12],GI50 [13],GI50 [14],GI50 [15],GI50 [16],GI50 [17],GI50 [18],GI50 [19],GI50 [20]
O=C(CCc1nnc2s/c(=C\c3ccc(Cl)cc3Cl)c(=O)n12)Nc1cc(Cl)c(Cl)cc1Cl,> 10 µM (inactive),> 10 µM (inactive),> 10 µM (inactive),> 10 µM (inactive),> 10,> 100 µM (inactive),> 10 µM (inactive),> 10 µM (inactive),> 10 µM (inactive),> 10 µM (inactive),> 10 µM (inactive),> 10 µM (inactive),> 10 µM (inactive),> 10 µM (inactive),> 10 µM (inactive),> 10 µM (inactive),> 10 µM (inactive),> 10 µM (inactive),> 10 µM (inactive),> 10 µM (inactive)
COCC1N=C(c2cc(OC)c(OC)c(OC)c2-c2cc3c(cc2C2OCCCO2)OCO3)O[C@H]1c1ccccc1 (stereo not given in full),> 100 µM (inactive),> 100 µM (inactive),> 100 µM (inactive),> 100 µM (inactive),> 100,> 100 µM (inactive),> 100 µM (inactive),> 100 µM (inactive),> 100 µM (inactive),> 100 µM (inactive),> 100 µM (inactive),> 100 µM (inactive),> 100 µM (inactive),> 100 µM (inactive),> 100 µM (inactive),> 100 µM (inactive),> 100 µM (inactive),> 100 µM (inactive),> 100 µM (inactive),> 100 µM (inactive)
Cc1c2ccncc2cc2c1sc1ccncc12,1.06 µM (active),1.21 µM (inactive),3.17 µM (inactive),1.75 µM (inactive),1.9,0.877 µM (active),2.73 µM (inactive),3.47 µM (inactive),3.55 µM (inactive),4.53 µM (inactive),4.16 µM (inactive),5.71 µM (inactive),2.61 µM (inactive),0.993 µM (active),3.66 µM (inactive),1.96 µM (inactive),4.56 µM (inactive),2.23 µM (inactive),1.45 µM (inactive),1.27 µM (inactive)
Cc1ccc2[nH]c3c(c(=O)n(C)c(=O)n3C)c2c1,> 100 µM (inactive),> 100 µM (inactive),> 100 µM (inactive),> 100 µM (inactive),> 100,> 100 µM (inactive),> 100 µM (inactive),> 100 µM (inactive),> 100 µM (inactive),> 100 µM (inactive),> 100 µM (inactive),> 100 µM (inactive),> 100 µM (inactive),> 100 µM (inactive),> 100 µM (inactive),> 100 µM (inactive),> 100 µM (inactive),> 100 µM (inactive),> 100 µM (inactive),> 100 µM (inactive)
Cc1ccc(C)c(NC(=O)C(=O)C(c2cnc3ccc([N+](=O)[O-])cc3n2)[N+](=O)[O-])c1 (stereo not given),26.6 µM (inactive),24.4 µM (inactive),30.8 µM (inactive),58.6 µM (inactive),76.6,14.9 µM (inactive),61.2 µM (inactive),26.5 µM (inactive),20.1 µM (inactive),56.9 µM (inactive),> 100 µM (inactive),17.3 µM (inactive),27 µM (inactive),0.102 µM (active),> 100 µM (inactive),> 100 µM (inactive),> 100 µM (inactive),32.4 µM (inactive),30 µM (inactive),29.2 µM (inactive)
COc1cc2c3c(n(C)c(=O)c2cc1OC)-c1cc2c(cc1C3=O)OCO2,1.01 µM (active),0.237 µM (active),35.3 µM (inactive),6.35 µM (inactive),> 96.2,22 µM (inactive),46.5 µM (inactive),2.47 µM (inactive),> 100 µM (inactive),9.91 µM (inactive),67.5 µM (inactive),> 100 µM (inactive),38.4 µM (inactive),71.3 µM (inactive),10.7 µM (inactive),0.871 µM (active),8.75 µM (inactive),11.3 µM (inactive),10.2 µM (inactive),1.63 µM (inactive)
CC(=O)O[C@H]1CC[C@@]2(C)C(=CC[C@@H]3[C@@H]2CC[C@]2(C)c4nc(N)c(C#N)cc4C[C@@H]32)C1,26.4 µM (inactive),14 µM (inactive),27.9 µM (inactive),18.2 µM (inactive),2.94,12.2 µM (inactive),9.82 µM (inactive),34.3 µM (inactive),55.1 µM (inactive),> 87.5 µM (inactive),41.5 µM (inactive),19.9 µM (inactive),30.3 µM (inactive),5.83 µM (inactive),60.5 µM (inactive),35.7 µM (inactive),13.7 µM (inactive),38.2 µM (inactive),43.4 µM (inactive),> 100 µM (inactive)
Cc1ccc(Cl)c2c1NC(=O)/C2=N\Nc1ccccc1[N+](=O)[O-],76.7 µM (inactive),24.5 µM (inactive),40.2 µM (inactive),36.3 µM (inactive),37.8,25.5 µM (inactive),35.8 µM (inactive),6.53 µM (inactive),23.8 µM (inactive),42.6 µM (inactive),42.7 µM (inactive),96.6 µM (inactive),39.7 µM (inactive),52.8 µM (inactive),45.8 µM (inactive),24.1 µM (inactive),21.3 µM (inactive),> 100 µM (inactive),27 µM (inactive),34.8 µM (inactive)
Cc1c(CC/C(=N\Nc2ccc([N+](=O)[O-])cc2[N+](=O)[O-])c2ccccc2)c2ccccc2n1C,> 100 µM (inactive),> 44 µM (inactive),> 100 µM (inactive),> 100 µM (inactive),> 100,> 50 µM (inactive),> 100 µM (inactive),> 100 µM (inactive),> 100 µM (inactive),> 100 µM (inactive),> 100 µM (inactive),> 100 µM (inactive),> 100 µM (inactive),20.7 µM (inactive),> 100 µM (inactive),> 100 µM (inactive),> 100 µM (inactive),> 100 µM (inactive),> 100 µM (inactive),> 86.9 µM (inactive)
COc1cc2cc(C(=O)N3C[C@H](CCl)c4c3cc(O)c3ccccc43)[nH]c2c(OC)c1OC,0.0393 µM (active),0.207 µM (active),0.31 µM (active),0.147 µM (active),0.192,< 0.01 µM (active),0.185 µM (active),0.121 µM (active),0.213 µM (active),0.159 µM (active),0.152 µM (active),0.261 µM (active),0.0942 µM (active),0.121 µM (active),0.117 µM (active),0.107 µM (active),0.055 µM (active),0.515 µM (active),0.174 µM (active),0.13 µM (active)
CC(NC(=O)CCS)C(=O)NC(C)C(=O)NC(Cc1c[nH]c2ccccc12)C(=O)NC(Cc1c[nH]cn1)C(=O)NC(CO)C(=O)NC(Cc1c[nH]c2ccccc12)C(=O)NCCCCC(=O)NC(C)C(=O)NC(CCC(N)=O)C(=O)NC(CCCCN)C(=O)NC(C)C(=O)NC(CCCNC(=N)N)C(=O)NC(CCCCN)C(N)=O (stereo not given) ([Mpa]AAWHSW[Ava]AQKARK-NH2; configuration not given here),> 100 µM (inactive),79.4 µM (inactive),> 100 µM (inactive),> 100 µM (inactive),> 100,24.7 µM (inactive),> 100 µM (inactive),> 100 µM (inactive),26.2 µM (inactive),> 100 µM (inactive),19 µM (inactive),> 100 µM (inactive),90.2 µM (inactive),> 100 µM (inactive),29.2 µM (inactive),> 100 µM (inactive),> 100 µM (inactive),> 100 µM (inactive),94.4 µM (inactive),> 100 µM (inactive)
C[C@@H]1[C@@H](c2ccccc2)O[B-](c2ccccc2)(c2ccccc2)[N+]1(C)C,50.1 µM (inactive),61.4 µM (inactive),> 100 µM (inactive),59.3 µM (inactive),58.7,66.1 µM (inactive),> 100 µM (inactive),96.8 µM (inactive),> 100 µM (inactive),34.5 µM (inactive),78 µM (inactive),56.4 µM (inactive),99.5 µM (inactive),58.9 µM (inactive),> 100 µM (inactive),> 100 µM (inactive),55.7 µM (inactive),> 100 µM (inactive),62.7 µM (inactive),22.7 µM (inactive)
CC(C)=CCC/C(C)=C/COc1c2ccoc2cc2oc(=O)ccc12 [BERGAMOTTIN],22.8 µM (inactive),18 µM (inactive),22.2 µM (inactive),23.8 µM (inactive),30.4,16.4 µM (inactive),19.7 µM (inactive),39.5 µM (inactive),32.7 µM (inactive),27.7 µM (inactive),33.5 µM (inactive),41.4 µM (inactive),43.7 µM (inactive),17.1 µM (inactive),54.1 µM (inactive),25.4 µM (inactive),37.2 µM (inactive),27.5 µM (inactive),37.8 µM (inactive),21.5 µM (inactive)
